Results on 15 compounds are retold here after ChEMBL document CHEMBL6109130, “PaAP-Activatable NIR Probe for Diagnosing, Imaging, and Discovering Small-Molecule Therapeutics against Implant-Associated Biofilm Infections” (J Med Chem, 2025).

The target in one data set is T1, Aminopeptidase (Pseudomonas aeruginosa, UniProt Q9HZQ8).
T1 sequence (Q9HZQ8 whole entry): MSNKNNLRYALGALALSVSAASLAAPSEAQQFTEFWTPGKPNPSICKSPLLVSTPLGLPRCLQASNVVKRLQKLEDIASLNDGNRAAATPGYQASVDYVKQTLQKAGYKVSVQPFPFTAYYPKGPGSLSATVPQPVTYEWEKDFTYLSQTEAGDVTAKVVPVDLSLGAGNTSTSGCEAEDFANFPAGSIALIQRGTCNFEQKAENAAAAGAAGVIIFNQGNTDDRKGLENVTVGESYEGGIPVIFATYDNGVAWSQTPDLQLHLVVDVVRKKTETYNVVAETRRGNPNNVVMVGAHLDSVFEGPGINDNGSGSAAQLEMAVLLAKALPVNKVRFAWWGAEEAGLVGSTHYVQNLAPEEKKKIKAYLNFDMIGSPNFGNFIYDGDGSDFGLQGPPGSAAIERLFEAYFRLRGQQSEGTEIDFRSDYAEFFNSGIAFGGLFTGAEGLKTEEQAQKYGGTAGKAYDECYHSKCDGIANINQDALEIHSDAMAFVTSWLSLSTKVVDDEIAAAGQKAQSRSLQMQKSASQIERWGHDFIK
Kind of data set: Inhibition of Pseudomonas aeruginosa aminopeptidase (PaAP) assessed as decrease in fluorescent intensity using fluorescent probe Hcy-NEO-Leu measured after 3 hrs.

Data set [1] has as its target T2, Aminopeptidase (Pseudomonas aeruginosa) (UniProt Q9HZQ8).
T2 sequence (whole entry): T1 sequence (Q9HZQ8 whole entry)
Description: Inhibition of Pseudomonas aeruginosa aminopeptidase (PaAP) assessed as decrease in fluorescent intensity using fluorescent probe Hcy-NEO-Leu at 1 mM measured after 3 hrs.

The subject of data set [2] is Pseudomonas aeruginosa. Description: Antimicrobial activity against Pseudomonas aeruginosa ATCC27853 assessed as viability at 50 uM. In kind it is functional, organism-based.
A short description of data set [3]: Cytotoxicity against mouse BV-2 cells assessed as cell viability at 25 uM measured after 24 hrs by CCK-8 assay relative to control. In kind it is toxicity, cell-based. Conditions: read-out: Activity.
Data set [4] can be described thus: Cytotoxicity against human A-375 cells assessed as cell viability at 25 uM measured after 24 hrs by CCK-8 assay relative to control. The note with it: read-out: Activity. In kind it is toxicity, cell-based. (Tetrazolium dyes change colour on reduction, which living cells bring about.)
A short description of data set [5]: Cytotoxicity against human HT-1080 cells assessed as cell viability at 25 uM measured after 24 hrs by CCK-8 assay relative to control. In kind it is toxicity, cell-based. Conditions: read-out: Activity.
Data set [6] is described as follows: Cytotoxicity against human HepG2 cells assessed as cell viability at 25 uM measured after 24 hrs by CCK-8 assay relative to control. Conditions: read-out: Activity. In kind it is toxicity, cell-based.
Data set [7] concerns the target T2, Aminopeptidase (Pseudomonas aeruginosa). Kind of data set: Inhibition of aminopeptidase (PaAP) in Pseudomonas aeruginosa PAO1 biofilm assessed as Hcy-NEO-Leu mediated fluorescence at 1 mM measured after 1 hr measured after 48 hrs by CLSM imaging based assay.
A further data set relates to HepG2. Kind of data set: Cytotoxicity against human HepG2 cells assessed as cell viability measured after 24 hrs by CCK-8 assay. In kind it is functional, cell-based.
The subject of data set [8] is Pseudomonas aeruginosa. Description: Anti-biofilm activity against Pseudomonas aeruginosa PAO1 on surgical suture (implant surface) using Hcy-NEO-Leu probe at 50 uM by fluorescence imaging analysis. In kind it is functional, organism-based.
A further data set has as its system Acinetobacter baumannii. Description: Antimicrobial activity against Acinetobacter baumannii ATCC19606 assessed as viability at 0.39 to 100 uM. The note with it: dose 0.39-100 µM. In kind it is functional, organism-based.
Another data set has as its system A-375. Description: Cytotoxicity against human A-375 cells assessed as cell viability measured after 24 hrs by CCK-8 assay. In kind it is functional, cell-based.
Another data set concerns Enterococcus faecium. Kind of data set: Antimicrobial activity against Enterococcus faecium ATCC29212 assessed as viability at 0.39 to 100 uM. In kind it is functional, organism-based. Conditions: dose 0.39-100 µM.
Data set [9] concerns Pseudomonas aeruginosa. Description: Antimicrobial activity against Pseudomonas aeruginosa PAO1 assessed as viability at 0.39 to 100 uM. In kind it is functional, organism-based. Conditions: dose 0.39-100 µM.
Data set [10] deals with T2, Aminopeptidase (Pseudomonas aeruginosa). Description: Inhibition of aminopeptidase (PaAP) in Pseudomonas aeruginosa delta(PaAP) assessed as decrease in fluorescent intensity using fluorescent probe Hcy-NEO-Leu at 50 uM measured after 3 hrs.
Data set [11] relates to Pseudomonas aeruginosa. Description: Anti-biofilm activity against Pseudomonas aeruginosa PAO1 biofilm exposed to RAW264.7 cells assessed as increase in bacterial uptake by macrophages at 50 uM measured after 12 hrs by LB plate assay. In kind it is functional, organism-based.
The test system of data set [12] is Pseudomonas aeruginosa. Kind of data set: Anti-biofilm activity against Pseudomonas aeruginosa PAO1 at 50 uM by crystal violet staining based optical microscopy relative to control. In kind it is functional.
In data set [13] the test system is Pseudomonas aeruginosa. Kind of data set: Anti-biofilm activity against Pseudomonas aeruginosa PAO1 deltaPaAP biofilm exposed to RAW264.7 cells assessed as increase in bacterial uptake by macrophages at 50 uM measured after 12 hrs by LB plate assay. In kind it is functional, organism-based.
The subject of a further data set is Klebsiella pneumoniae. Description: Antimicrobial activity against Klebsiella pneumonia ATCC 700603 assessed as viability at 0.39 to 100 uM. In kind it is functional, organism-based. The note with it: dose 0.39-100 µM.
Data set [14] relates to Pseudomonas aeruginosa. Kind of data set: Reduction in aminopeptidase (PaAP) expression level in Pseudomonas aeruginosa PAO1 at 50 to 200 uM by ELISA relative to control. In kind it is functional. Conditions: dose 50-200 µM. (In general: ELISA stands for enzyme-linked immunosorbent assay.)
Data set [15] has as its system Pseudomonas aeruginosa. Description: Anti-biofilm activity against Pseudomonas aeruginosa PAO1 on nail (implant surface) using Hcy-NEO-Leu probe at 50 uM by fluorescence imaging analysis. In kind it is functional, organism-based.
In data set [16] the target is T2, Aminopeptidase (Pseudomonas aeruginosa). Kind of data set: Inhibition of aminopeptidase (PaAP) in Pseudomonas aeruginosa PAO1 biofilm assessed as Hcy-NEO-Leu mediated fluorescence at 50 uM measured after 1 hr measured after 48 hrs by CLSM imaging based assay.
A further data set has as its system Staphylococcus aureus. Description: Antimicrobial activity against Staphylococcus aureus ATCC25923 assessed as viability at 0.39 to 100 uM. In kind it is functional, organism-based. The note with it: dose 0.39-100 µM.
Data set [17] addresses T2, Aminopeptidase (Pseudomonas aeruginosa). Kind of data set: Inhibition of aminopeptidase (PaAP) in wild type Pseudomonas aeruginosa assessed as decrease in fluorescent intensity using fluorescent probe Hcy-NEO-Leu at 50 uM measured after 3 hrs.
Data set [18] concerns Pseudomonas aeruginosa. Description: In vivo anti-biofilm activity against pre colonized mature Pseudomonas aeruginosa PAO1 subcutaneously transplanted catheter in mouse model assessed as reduction in bacterial CFU using Hcy-NEO-Leu probe. In kind it is functional, organism-based.
Data set [19] relates to Pseudomonas aeruginosa. Description: In vivo anti-biofilm activity against pre colonized mature Pseudomonas aeruginosa PAO1 subcutaneously transplanted catheter in mouse model assessed as reduction in fluorescence signal using Hcy-NEO-Leu probe relative to control group. In kind it is functional.
Data set [20] relates to Pseudomonas aeruginosa. Kind of data set: Induction of antibiotic susceptibility of Pseudomonas aeruginosa PAO1 assessed as reduction in tobramycin resistance by measuring bio-film fluorescence image at 50 uM incubated for 2 days followed by treated with tobramycin for 24 hrs by Calcein-AM/PI dual staining based Confocal microscopy. The note with it: time 3.0 day. In kind it is functional, organism-based.

A further data set deals with HK-2. Description: Cytotoxicity against human HK2 cells assessed as cell viability measured after 24 hrs by CCK-8 assay. In kind it is functional, cell-based.
Data set [21] has as its system Pseudomonas aeruginosa. Kind of data set: Anti-biofilm activity against Pseudomonas aeruginosa PAO1 on catheter (implant surface) using Hcy-NEO-Leu probe at 50 uM by fluorescence imaging analysis. In kind it is functional, organism-based.
The test system of another data set is BV-2. Kind of data set: Cytotoxicity against mouse BV-2 cells assessed as cell viability measured after 24 hrs by CCK-8 assay. In kind it is functional, cell-based.

Active and inactive are the calls of the source. No cut-off for these calls is given here.

A word on the IC50: it is the point on the concentration scale where inhibition reaches its midpoint. As for `O=C(O)CCNC(=O)c1ccc(/N=N/c2ccc(O)c(C(=O)O)c2)cc1` [BALSALAZIDE], on Aminopeptidase, the half-maximal inhibitory concentration (IC50) turned out to be 39.2 µM.

For orientation: inhibition means the share of the control response that was lost under treatment. For `O=C1C=C2CCN3Cc4cc5c(cc4[C@H]([C@@H]1O)[C@@H]23)OCO5`, the inhibition entry in data set [1] is “Active”.

As for `CC(C)C[C@H](N)C(=O)Nc1ccc(COc2ccc3c(c2)OC2=C(/C=C/C4=[N+](CCCCCC(=O)NC[C@H]5O[C@@H](O[C@@H]6[C@@H](O)[C@H](N)C[C@H](N)[C@H]6O[C@H]6O[C@H](CN)[C@@H](O)[C@H](O)[C@H]6N)[C@H](O)[C@@H]5O[C@H]5O[C@@H](CN)[C@@H](O)[C@H](O)[C@H]5N)c5ccccc5C4(C)C)CCCC2=C3)cc1`, the result with Pseudomonas aeruginosa [2] was inactive. In addition, the viability at 24 h, 25 µM in data set [3], in data set [4], in [5] and in data set [6] was greater than 80% each time.

For the compound `CC(C)(C)[Si](C)(C)OC1CCC(N2C(=S)O[C@H]3[C@H]4c5cc6c(cc5CN5CCC(=C[C@H]32)[C@H]45)OCO6)CC1` (some centres not stated), the inhibition entry in [1] is “Active”.

As for `S=C1O[C@H]2[C@H]3c4cc5c(cc4CN4CCC(=C[C@H]2N1c1cccnc1)[C@H]34)OCO5`, the inhibition entry in data set [1] is “Active”.

For `O=C(COc1ccccc1)O[C@@H]1C(=O)C=C2CCN3Cc4cc5c(cc4[C@H]1[C@@H]23)OCO5`, the inhibition entry in data set [1] is “Active”.

On to `O[C@H]1[C@H]2c3cc4c(cc3CN3CCC(=C[C@@H]1O)[C@H]23)OCO4`, for which the inhibition result in data set [1] was “Active”.

For the compound `O=C1O[C@H]2[C@H]3c4cc5c(cc4CN4CCC(=C[C@H]2N1c1ccc(Cl)cc1)[C@H]34)OCO5`, in [1], the inhibition entry was “Active”.

For `CC(C)C[C@H](NC(=O)[C@@H](O)[C@H](N)Cc1ccccc1)C(=O)O` [UBENIMEX], the inhibition in data set [7] stood at 100%. On Aminopeptidase, the IC50 is 521 µM.

For `O=C(CSc1ccc(F)cc1)O[C@@H]1C(=O)C=C2CCN3Cc4cc5c(cc4[C@H]1[C@@H]23)OCO5`, the inhibition entry in [1] was “Active”.

Regarding `O=C(Nc1ccc(Cl)cc1)O[C@H]1[C@H]2c3cc4c(cc3CN3CCC(=C[C@@H]1O)[C@H]23)OCO4`, the inhibition result in [1] is “Active”.

Consider `CC1(C)C(/C=C/C2=C3Oc4cc(O)ccc4C=C3CCC2)=[N+](CCCCCC(=O)NC[C@H]2O[C@@H](O[C@@H]3[C@@H](O)[C@H](N)C[C@H](N)[C@H]3O[C@H]3O[C@H](CN)[C@@H](O)[C@H](O)[C@H]3N)[C@H](O)[C@@H]2O[C@H]2O[C@@H](CN)[C@@H](O)[C@H](O)[C@H]2N)c2ccccc21`, for which, in the data set with Pseudomonas aeruginosa [2], the outcome was inactive. The viability at 24 h, 25 µM in [3], in [4], in [5] and in data set [6] was greater than 80% each time.

As to `O[C@H]1[C@H]2c3cc4c(cc3CN3CCC(=C[C@@H]1OC(=S)Nc1ccccc1)[C@H]23)OCO4`, the outcome in the data set with HepG2, in the data set with Acinetobacter baumannii, with A-375, with Enterococcus faecium, in the data set on Pseudomonas aeruginosa [9] and with Klebsiella pneumoniae was inactive. Moreover, the outcome with Staphylococcus aureus, in the data set with HK-2 and in the data set on BV-2 was inactive. Further, the outcome in the data set on Pseudomonas aeruginosa [8], in the data set with Pseudomonas aeruginosa [11], with Pseudomonas aeruginosa [13], in the data set on Pseudomonas aeruginosa [14], in the data set with Pseudomonas aeruginosa [15] and in the data set on Pseudomonas aeruginosa [18] was Active. Further, the outcome with Pseudomonas aeruginosa [20] and in the data set on Pseudomonas aeruginosa [21] was Active. Moreover, the inhibition entry in data set [10] was “inactive”. This compound also showed an Activity in the data set on Pseudomonas aeruginosa [12] of less than 50%. The IC50 on Aminopeptidase amounted to 36.8 µM. Further, the inhibition result in data set [16], in data set [17] and in [1] was “Active” each time. In addition, the “fold change (FC)” value with Pseudomonas aeruginosa [19] is recorded as 2.65.

As to `O=C(O[C@H]1[C@H]2c3cc4c(cc3CN3CCC(=C[C@@H]1O)[C@H]23)OCO4)C1CCCCC1`, the inhibition entry in data set [1] is “Active”.

On to `O=C(NC1CCCCC1)O[C@H]1[C@H]2c3cc4c(cc3CN3CCC(=C[C@@H]1O)[C@H]23)OCO4`, for which the inhibition entry in data set [1] was “Active”.
